Test: Microtiter plate DPPH antioxidant assay
Settings: 0.05 mg/mL DPPH, five minutes at 25° C., absorbance 517 nm; from polynomial regression
Experimental: HPLC grade reagent alcohol was obtained from Fisher Scientific, catalog number A995-4. 2,2-Diphenyl-1-picrylhydrazyl (DPPH) was from Fisher Scientific, catalog number AA4415003. Trolox was from Fisher Scientific, catalog number 05-402-25. Test material was prepared as in Example 1 (LumiSalisTM SE lot 592142P5, 592142P8 and 592142P9). Absorbance was measured using a Molecular Devices SpectraMax M5e plate reader (KH51-001) with a clear, flat-bottom 96-well plate, […] Science […] catalog number CC plate-PS-965-F-C-S. Masses were measured with a Mettler Toledo analytical balance (Model X5204). […] The controls and samples were all plated in triplicate and the average absorbance value was used for results calculations. The plate was shaken and incubated at 25° C. in the microplate reader for five minutes. The absorbance was measured at 517 nm. The sample concentrations (x-axis) are plotted against their respective relative average absorbance value (subtracted the average absorbance of the background from the average absorbance) at 517 nm (y-axis) and the best fit line (a polynomial fit) is calculated. The […] (50% inhibition) of each control and sample were calculated based on the polynomial regression line equation.

Cc1c(C)c2c(c(C)c1O)CCC(C)(C(=O)O)O2 (stereo not shown) [trolox, Trolox]
IC50 on DPPH assay: 0.0010%
